According to patent US9216166B2, “Anti-microbial photodynamic therapy” (Biolitec Pharma Marketing, Ltd, priority 2006, dated 2015):

How the values were obtained:
Format in all cases: cell-based
[1] = test system: Gram-positive and Gram-negative bacteria; assay: Photodynamic inactivation of bacterial cell suspension using photosensitizers 1, 3a-e (CFU/ml after 665 nm laser irradiation); conditions: in the presence of blood (PBS with 10% human blood), 30 min incubation, about 100 J/cm^2, FIG. 2
Description: In the preferred embodiment, the antibacterial treatment includes the administration of photosensitizers to an environment containing bacteria and is allowed to incubate for a sufficient period of time thus providing accumulation of the photosensitizer into the bacterial cells. The incubation time varies depending on many factors. In this experiment it is incubated for 30 min before being irradiated with 665 nm laser at 100 J/cm^2 to initiate photodestruction of bacterial cells. The photosensitizer can be administered either by systemic application, or local injection in the affected area. For infection on or near the skin it can be administered topically.
The organisms used in our studies were three members of the microflora of wounds: Staphylococcus aureus DSM1104, Gram-positive; Escherichia coli DSM8698, Gram-negative; Pseudomonas aeruginosa DSM1117, Gram-negative.
Cultured cells are suspended in sterile phosphate-buffered saline (PBS) or sterile PBS supplemented with 10% sterile horse blood serum, 10% human plasma or 10% human blood respectively. The final OD (Optical Density) at 600 nm, 1 cm in all cases was 0.03. The bacterial suspensions are placed into sterile black well plates with clear bottoms. […]

[2] = test system: Staphylococcus aureus, Pseudomonas aeruginosa and Escherichia coli; assay: Photodynamic inactivation of bacteria with Safranin O (FIG. 1)
From the text: (§1) One of the major problems for the use of anti-microbial PDT is a blocking action of the components of the blood whose presence decreases the activity of photosensitizers.
(§2) The antibacterial effect strongly depends on the kind of bacterial cells.
(§3) FIG. 1, Graph showing photodynamic inactivation of Staphylococcus aureus DSM1104 (FIG. 1A), Pseudomonas aeruginosa DSM1 117 (FIG. 1B), and Escherichia coli DSM8698 (FIG. 1C) by treatment with Safranin O as a photo sensitizer.

[3] = test system: Pseudomonas aeruginosa DSM1117; assay: Photodynamic inactivation of Pseudomonas aeruginosa with Safranin O (FIG. 1B)
From the text: as §1, §2, §3

[4] = test system: Staphylococcus aureus DSM1104; assay: Photodynamic inactivation of Staphylococcus aureus with Safranin O (FIG. 1A)
From the text: as §1, §2, §3

Escherichia coli DSM8698 = assay: Photodynamic inactivation of Escherichia coli with Safranin O (FIG. 1C); conditions: compared with Staphylococcus aureus
From the text: as §1, §2, §3

Row | SMILES | photodynamic activity against Gram-positive and Gram-negative bacteria [1] | bactericidal photodynamic activity ([2]; in PBS buffer) | change of bactericidal photodynamic activity ([2]; when blood serum or blood is added) | effect of added serum, plasma or blood on photodynamic activity against Pseudomonas aeruginosa ([3]; addition of 10% of horse serum or human plasma or whole blood) | susceptibility of Gram-negative cells of Pseudomonas aeruginosa to killing by PDT ([3]; compared with Staphylococcus aureus, FIG. 1) | killing of Gram-positive cells of Staphylococcus aureus by PDT [4] | susceptibility of Gram-negative cells of Escherichia coli to killing by PDT (Escherichia coli DSM8698)
1 | CCC1=C(C)c2cc3[nH]c(cc4nc(c5c6[nH]c(cc1n2)c(C)c6C(=O)C5)[C@@H](CCC(=O)O)C4C)c(C)c3CC (stereo partly drawn) [compound 1, meso pyropheophorbide-a] | not active | – | – | – | – | – | –
2 | Cc1cc2nc3cc(C)c(N)cc3[n+](-c3ccccc3)c2cc1N.[Cl-] [Safranin O] | – | high bactericidal photodynamic activity | decreased remarkably | practically block the photodynamic activity | more resistant to killing by PDT | could be killed sufficiently | more resistant to killing by PDT
